This note sets out measurements from ChEMBL document CHEMBL1127003, “N-oleoyl-1,2,3,4-tetrahydroisoquinolines as conformationally restricted inhibitors of acyl-CoA:cholesterol acyl transferase (ACAT)” (Bioorg Med Chem Lett, 1993).

The first assay deals with T1, Sterol O-acyltransferase 1 (Rattus norvegicus, UniProt O70536).
T1 sequence (O70536 whole entry): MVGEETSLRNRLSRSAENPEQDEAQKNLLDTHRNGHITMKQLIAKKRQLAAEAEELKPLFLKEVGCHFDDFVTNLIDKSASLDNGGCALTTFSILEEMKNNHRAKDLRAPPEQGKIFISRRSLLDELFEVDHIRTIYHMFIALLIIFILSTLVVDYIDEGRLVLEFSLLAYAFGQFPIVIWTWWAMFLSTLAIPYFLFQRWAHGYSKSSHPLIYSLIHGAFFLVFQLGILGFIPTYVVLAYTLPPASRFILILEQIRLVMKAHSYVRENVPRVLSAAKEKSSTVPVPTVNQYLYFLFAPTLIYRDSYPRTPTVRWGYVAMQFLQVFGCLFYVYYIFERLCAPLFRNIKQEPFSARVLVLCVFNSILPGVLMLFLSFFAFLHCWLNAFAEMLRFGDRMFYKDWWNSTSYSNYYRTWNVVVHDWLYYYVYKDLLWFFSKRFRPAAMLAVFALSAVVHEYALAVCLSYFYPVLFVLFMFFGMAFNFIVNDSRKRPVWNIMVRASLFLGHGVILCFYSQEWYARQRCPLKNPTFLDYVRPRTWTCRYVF
Nature of the assay: Inhibitory activity was evaluated in rat liver microsomes using Acyl coenzyme A:cholesterol acyltransferase microsomal assay. On the set-up: species or system Microsome.
Conditions: not given
(In general: Microsomes from liver hold many membrane-bound enzymes, among them those of drug oxidation.)
`CCCCCCCC/C=C\CCCCCCCC(=O)N1Cc2cc(OC)c(OC)cc2CC1c1ccccc1` (stereo unspecified): the IC50 turned out to be 3.8 µM.

In turn, `CCCCCCCC/C=C\CCCCCCCC(=O)NC(Cc1ccccc1)c1ccccc1` (stereo unspecified) showed an IC50 of 0.15 µM.

Turning to `CCCCCCCC/C=C\CCCCCCCC(=O)N1CCc2cc(OC)c(OC)cc2C1Cc1ccc(OC)c(OC)c1` (stereo unspecified), the 50% inhibitory concentration (IC50) stood at 2.7 µM.

With `CCCCCCCC/C=C\CCCCCCCC(=O)N1CCc2ccccc2C1Cc1ccccc1` (stereo unspecified), half-maximal inhibition (IC50) was put at 4.8 µM.

A further assay has as its target T2, Sterol O-acyltransferase 1 (Rattus norvegicus) (UniProt O70536).
T2 sequence (whole entry): T1 sequence (O70536 whole entry)
Description: Percent inhibition of Acyl coenzyme A:cholesterol acyltransferase at a concentration of 25(micro M) was evaluated in rat liver microsomes using ACAT microsomal assay. As to conditions: Microsome.
In the case of `CCCCCCCC/C=C\CCCCCCCC(=O)N1CCc2cc(O)c(O)cc2C1Cc1ccccc1` (stereo unspecified), the inhibition amounted to 73%.

`CCCCCCCC/C=C\CCCCCCCC(=O)N1Cc2cc(OC)c(OC)cc2CC1c1ccccc1` (stereo unspecified): the inhibition came to 86%.

`CCCCCCCC/C=C\CCCCCCCC(=O)NC(Cc1ccccc1)c1ccccc1` (stereo unspecified) yielded an inhibition of 87%.

For the molecule `CCCCCCCC/C=C\CCCCCCCC(=O)N1CCc2cc(OC)c(OC)cc2C1Cc1ccc(OC)c(OC)c1` (stereo unspecified), the inhibition came to 91%.

Consider `CCCCCCCC/C=C\CCCCCCCC(=O)N1CCc2cc(OC)c(OC)cc2C1Cc1ccccc1` (stereo unspecified), for which the inhibition was 63%.

The molecule `CCCCCCCC/C=C\CCCCCCCC(=O)N1CCc2ccccc2C1Cc1ccccc1` (stereo unspecified) registered an inhibition of 81%.

Molecule `CCCCCCCC/C=C\CCCCCCCC(=O)N1Cc2cc(OC)c(OC)cc2CC1c1ccc(OC)c(OC)c1` (stereo unspecified) returned an inhibition of 67%.

One may read the IC50 as the concentration needed to halve the response being measured. As usually defined, the inhibition is the drop in the measured response relative to a control, in per cent. Read a low inhibition as little suppression.
